Legend:
Assay in all cases: relative viability (nuclei count vs DMSO), 5 days (fraction); higher = more cells survive
BEN = test system: BEN
Summary of the method: (§1)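 Values are medians from duplicate plates. Each reflects relative viability, defined as the nuclei count of treated wells over that of vehicle wells. Lung cancer cell lines in 1536-well plates were pin-tool dosed one day after seeding with one drug alone or with a fixed anchor-drug dose plus five library-drug doses (not always all listed) in √10 steps, then fixed, stained and imaged at 4× after 5 days.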

CAL-12T = test system: CAL-12T
Summary of the method: as §1

COR-L23 = test system: COR-L23
Summary of the method: as §1

HCC-44 = test system: HCC-44
Summary of the method: as §1

LU99A = test system: LU99A
Summary of the method: as §1

LXF-289 = test system: LXF-289
Summary of the method: as §1

NCI-H1355 = test system: NCI-H1355
Summary of the method: as §1

NCI-H1437 = test system: NCI-H1437
Summary of the method: as §1

NCI-H1563 = test system: NCI-H1563
Summary of the method: as §1

NCI-H1650 = test system: NCI-H1650
Summary of the method: as §1

NCI-H1651 = test system: NCI-H1651
Summary of the method: as §1

NCI-H1666 = test system: NCI-H1666
Summary of the method: as §1

NCI-H1755 = test system: NCI-H1755
Summary of the method: as §1

NCI-H1792 = test system: NCI-H1792
Summary of the method: as §1

NCI-H1993 = test system: NCI-H1993
Summary of the method: as §1

NCI-H2085 = test system: NCI-H2085
Summary of the method: as §1

NCI-H2087 = test system: NCI-H2087
Summary of the method: as §1

NCI-H2170 = test system: NCI-H2170
Summary of the method: as §1

NCI-H460 = test system: NCI-H460
Summary of the method: as §1

NCI-H520 = test system: NCI-H520
Summary of the method: as §1

PC-14 = test system: PC-14
Summary of the method: as §1

SK-MES-1 = test system: SK-MES-1
Summary of the method: as §1

CCNC(=O)c1noc(-c2cc(C(C)C)c(O)cc2O)c1-c1ccc(CN2CCOCC2)cc1 [Luminespib] + COc1cccc2cc(-c3nc([C@H]4CC[C@H](C(=O)O)CC4)n4ncnc(N)c34)[nH]c12 [OSI-027] (partner 0.5 µM)
relative viability (BEN; first compound 0.002 µM): 0.288
relative viability (BEN; first compound 0.006325 µM): 0.292
relative viability (BEN; first compound 0.02 µM): 0.316
relative viability (BEN; first compound 0.06325 µM): 0.212
relative viability (BEN; first compound 0.2 µM): 0.183
relative viability (CAL-12T; first compound 0.002 µM): 0.799
relative viability (CAL-12T; first compound 0.006325 µM): 0.63
relative viability (CAL-12T; first compound 0.02 µM): 0.21
relative viability (CAL-12T; first compound 0.06325 µM): 0.0898
relative viability (CAL-12T; first compound 0.2 µM): 0.0995
relative viability (COR-L23; first compound 0.002 µM): 0.925
relative viability (COR-L23; first compound 0.006325 µM): 0.655
relative viability (COR-L23; first compound 0.02 µM): 0.508
relative viability (COR-L23; first compound 0.06325 µM): 0.079
relative viability (COR-L23; first compound 0.2 µM): 0.0776
relative viability (HCC-44; first compound 0.002 µM): 0.484
relative viability (HCC-44; first compound 0.006325 µM): 0.554
relative viability (HCC-44; first compound 0.02 µM): 0.483
relative viability (HCC-44; first compound 0.06325 µM): 0.135
relative viability (HCC-44; first compound 0.2 µM): 0.139
relative viability (LU99A; first compound 0.002 µM): 0.274
relative viability (LU99A; first compound 0.006325 µM): 0.265
relative viability (LU99A; first compound 0.02 µM): 0.265
relative viability (LU99A; first compound 0.06325 µM): 0.154
relative viability (LU99A; first compound 0.2 µM): 0.162
relative viability (LXF-289; first compound 0.002 µM): 0.751
relative viability (LXF-289; first compound 0.006325 µM): 0.762
relative viability (LXF-289; first compound 0.02 µM): 0.759
relative viability (LXF-289; first compound 0.06325 µM): 0.163
relative viability (LXF-289; first compound 0.2 µM): 0.0755
relative viability (NCI-H1355; first compound 0.002 µM): 0.39
relative viability (NCI-H1355; first compound 0.006325 µM): 0.377
relative viability (NCI-H1355; first compound 0.02 µM): 0.277
relative viability (NCI-H1355; first compound 0.06325 µM): 0.163
relative viability (NCI-H1355; first compound 0.2 µM): 0.148
relative viability (NCI-H1437; first compound 0.002 µM): 0.838
relative viability (NCI-H1437; first compound 0.006325 µM): 0.845
relative viability (NCI-H1437; first compound 0.02 µM): 0.466
relative viability (NCI-H1437; first compound 0.06325 µM): 0.57
relative viability (NCI-H1437; first compound 0.2 µM): 0.187
relative viability (NCI-H1563; first compound 0.002 µM): 0.756
relative viability (NCI-H1563; first compound 0.006325 µM): 0.697
relative viability (NCI-H1563; first compound 0.02 µM): 0.585
relative viability (NCI-H1563; first compound 0.06325 µM): 0.473
relative viability (NCI-H1563; first compound 0.2 µM): 0.468
relative viability (NCI-H1650; first compound 0.002 µM): 0.717
relative viability (NCI-H1650; first compound 0.006325 µM): 0.44
relative viability (NCI-H1650; first compound 0.02 µM): 0.163
relative viability (NCI-H1650; first compound 0.06325 µM): 0.0992
relative viability (NCI-H1650; first compound 0.2 µM): 0.148
relative viability (NCI-H1651; first compound 0.002 µM): 0.818
relative viability (NCI-H1651; first compound 0.006325 µM): 0.622
relative viability (NCI-H1651; first compound 0.02 µM): 0.42
relative viability (NCI-H1651; first compound 0.06325 µM): 0.377
relative viability (NCI-H1651; first compound 0.2 µM): 0.18
relative viability (NCI-H1666; first compound 0.002 µM): 0.841
relative viability (NCI-H1666; first compound 0.006325 µM): 0.801
relative viability (NCI-H1666; first compound 0.02 µM): 0.853
relative viability (NCI-H1666; first compound 0.06325 µM): 0.81
relative viability (NCI-H1666; first compound 0.2 µM): 0.791
relative viability (NCI-H1755; first compound 0.002 µM): 0.768
relative viability (NCI-H1755; first compound 0.006325 µM): 0.707
relative viability (NCI-H1755; first compound 0.02 µM): 0.626
relative viability (NCI-H1755; first compound 0.06325 µM): 0.206
relative viability (NCI-H1755; first compound 0.2 µM): 0.113
relative viability (NCI-H1792; first compound 0.002 µM): 0.637
relative viability (NCI-H1792; first compound 0.006325 µM): 0.618
relative viability (NCI-H1792; first compound 0.02 µM): 0.509
relative viability (NCI-H1792; first compound 0.06325 µM): 0.26
relative viability (NCI-H1792; first compound 0.2 µM): 0.229
relative viability (NCI-H1993; first compound 0.002 µM): 0.598
relative viability (NCI-H1993; first compound 0.006325 µM): 0.545
relative viability (NCI-H1993; first compound 0.02 µM): 0.562
relative viability (NCI-H1993; first compound 0.06325 µM): 0.457
relative viability (NCI-H1993; first compound 0.2 µM): 0.389
relative viability (NCI-H2085; first compound 0.002 µM): 0.793
relative viability (NCI-H2085; first compound 0.006325 µM): 0.779
relative viability (NCI-H2085; first compound 0.02 µM): 0.395
relative viability (NCI-H2085; first compound 0.06325 µM): 0.242
relative viability (NCI-H2085; first compound 0.2 µM): 0.233
relative viability (NCI-H2087; first compound 0.002 µM): 0.553
relative viability (NCI-H2087; first compound 0.006325 µM): 0.454
relative viability (NCI-H2087; first compound 0.02 µM): 0.157
relative viability (NCI-H2087; first compound 0.06325 µM): 0.125
relative viability (NCI-H2087; first compound 0.2 µM): 0.0972
relative viability (NCI-H2170; first compound 0.002 µM): 0.739
relative viability (NCI-H2170; first compound 0.006325 µM): 0.698
relative viability (NCI-H2170; first compound 0.02 µM): 0.488
relative viability (NCI-H2170; first compound 0.06325 µM): 0.23
relative viability (NCI-H2170; first compound 0.2 µM): 0.173
relative viability (NCI-H460; first compound 0.002 µM): 0.702
relative viability (NCI-H460; first compound 0.006325 µM): 0.586
relative viability (NCI-H460; first compound 0.02 µM): 0.0482
relative viability (NCI-H460; first compound 0.06325 µM): 0.0153
relative viability (NCI-H460; first compound 0.2 µM): 0.0165
relative viability (NCI-H520; first compound 0.002 µM): 0.247
relative viability (NCI-H520; first compound 0.006325 µM): 0.27
relative viability (NCI-H520; first compound 0.02 µM): 0.231
relative viability (NCI-H520; first compound 0.06325 µM): 0.159
relative viability (NCI-H520; first compound 0.2 µM): 0.158
relative viability (PC-14; first compound 0.002 µM): 0.918
relative viability (PC-14; first compound 0.006325 µM): 0.598
relative viability (PC-14; first compound 0.02 µM): 0.11
relative viability (PC-14; first compound 0.06325 µM): 0.0462
relative viability (PC-14; first compound 0.2 µM): 0.0587
relative viability (SK-MES-1; first compound 0.002 µM): 0.609
relative viability (SK-MES-1; first compound 0.006325 µM): 0.486
relative viability (SK-MES-1; first compound 0.02 µM): 0.2
relative viability (SK-MES-1; first compound 0.06325 µM): 0.11
relative viability (SK-MES-1; first compound 0.2 µM): 0.131

Reference: the supplement of paper PMC10307832
